From ChEMBL document CHEMBL5505983, “Design, synthesis, and molecular modeling studies of novel 2-quinolone-1,2,3-triazole-α-aminophosphonates hybrids as dual antiviral and antibacterial agents” (Eur J Med Chem, 2024)
Converted amounts (≈) assume the structure as drawn.

How the values were obtained:
Yellow fever virus = test: Antiviral activity against Yellow fever virus infected in human Huh-7 cells assessed as inhibition of cytopathic effect by microscopy based analysis; assay type: functional, organism-based
[1] = Cytotoxicity against human Huh-7 cells; assay type: toxicity, cell-based
[2] = Selectivity index, ratio of CC50 for human Huh-7 cells to IC50 for Yellow fever virus infected in human Huh-7 cells; assay type: toxicity, cell-based; details: read-out: Ratio CC50/IC50
Zika virus = test: Antiviral activity against Zika virus infected in african green monkey Vero E6 cells assessed as inhibition of cytopathic effect by microscopy based analysis; assay type: functional, organism-based; details: Vero C1008
[3] = Cytotoxicity against African green monkey Vero E6 cells; assay type: toxicity, cell-based, Vero C1008; details: chlorocebus sabaeus
[4] = Selectivity index, ratio of CC50 for African green monkey Vero E6 cells to IC50 for Zika virus infected in african green monkey Vero E6 cells; assay type: toxicity; details: read-out: Ratio CC50/IC50
Chikungunya virus = test: Antiviral activity against CHIKV infected in African green monkey Vero A cells assessed as inhibition of cytopathic effect by microscopy based analysis; assay type: functional, organism-based
[5] = Cytotoxicity against African green monkey Vero A cells; assay type: toxicity, cell-based; details: chlorocebus sabaeus
Enterovirus A71 = test: Antiviral activity against human EV71 infected in human RD cells assessed as inhibition of cytopathic effect by microscopy based analysis; assay type: functional, organism-based; details: Enterovirus A
[6] = Cytotoxicity against human RD cells; assay type: toxicity, cell-based
Human rhinovirus sp. [7] = test: Antiviral activity against Human rhinovirus B14 infected in human HeLa-RH cells assessed as inhibition of cytopathic effect by microscopy based analysis; assay type: functional, organism-based
[8] = Cytotoxicity against human HeLa-RH cells; assay type: toxicity, cell-based
Human rhinovirus sp. [9] = test: Antiviral activity against Human rhinovirus A2 infected in human HeLa-RH cells assessed as inhibition of cytopathic effect by microscopy based analysis; assay type: functional, organism-based
Escherichia coli [10] = test: Antibacterial activity against Escherichia coli CIP 53154 assessed as reduction in bacterial growth by micro-broth dilution method; assay type: functional
Escherichia coli [11] = test: Bactericidal activity against Escherichia coli CIP 53154; assay type: functional
Pseudomonas aeruginosa [12] = test: Antibacterial activity against Pseudomonas aeruginosa CIP A22 assessed as reduction in bacterial growth by micro-broth dilution method; assay type: functional
Pseudomonas aeruginosa [13] = test: Bactericidal activity against Pseudomonas aeruginosa CIP A22; assay type: functional
Staphylococcus aureus [14] = test: Antibacterial activity against Staphylococcus aureus CIP 54127 assessed as reduction in bacterial growth by micro-broth dilution method; assay type: functional
Staphylococcus aureus [15] = test: Bactericidal activity against Staphylococcus aureus CIP 54127; assay type: functional
Enterococcus faecalis [16] = test: Antibacterial activity against Enterococcus faecalis assessed as reduction in bacterial growth by micro-broth dilution method; assay type: functional
Enterococcus faecalis [17] = test: Bactericidal activity against Enterococcus faecalis; assay type: functional
Escherichia coli [18] = test: Ratio of MBC to MIC for Escherichia coli CIP 53154; assay type: functional
Pseudomonas aeruginosa [19] = test: Ratio of MBC to MIC for Pseudomonas aeruginosa CIP A22; assay type: functional
Staphylococcus aureus [20] = test: Ratio of MBC to MIC for Staphylococcus aureus CIP 54127; assay type: functional
Enterococcus faecalis [21] = test: Ratio of MBC to MIC for Enterococcus faecalis; assay type: functional
SARS-CoV-2 = test: Antiviral activity against SARS-CoV-2 HCoV-19/Egypt/NRC-03/2020 infected in African green monkey Vero E6 cells assessed as inhibition of virus induced cytopathic effect pre-infected with virus for 1 hr followed by compound addition and measured after 72 hrs by crystal violet staining based analysis; assay type: functional, organism-based; details: Severe acute respiratory syndrome coronavirus 2, HCoV-19/Egypt/NRC-03/2020, Vero C1008
[22] = Selectivity index, ratio of CC50 for human HeLa-RH cells to IC50 for Human rhinovirus B14 infected in human HeLa-RH cells; assay type: toxicity, cell-based; details: read-out: Ratio CC50/IC50
[23] = Selectivity index, ratio of CC50 for human HeLa-RH cells to IC50 for Human rhinovirus A2 infected in human HeLa-RH cells; assay type: toxicity, cell-based; details: read-out: Ratio CC50/IC50
Staphylococcus aureus [24] = test: Antibacterial activity against Staphylococcus aureus; assay type: functional
Pseudomonas aeruginosa [25] = test: Antibacterial activity against Pseudomonas aeruginosa; assay type: functional

**Q.** For CCOP(=O)(OCC)C(Nc1ccccc1Cl)c1cc(Cn2cc(Cn3c(=O)cc(C)c4cc(Br)ccc43)nn2)ccc1O (stereo not drawn), which IC50 (Yellow fever virus) is on record?
**A.** The IC50 was 9.91 µM.

**Q.** And the CC50 [1]?
**A.** The CC50 was 20 µM.

**Q.** What about the selectivity ratio [2] of the same compound?
**A.** Its selectivity ratio is 2.02.

**Q.** And the IC50 (Zika virus)?
**A.** Its IC50 is 71.5 µM.

**Q.** What about the CC50 [3] of the same compound?
**A.** Its CC50 is > 100 µM.

**Q.** What about the selectivity ratio [4] of the same compound?
**A.** Its selectivity ratio is > 1.4.

**Q.** And the IC50 (Chikungunya virus)?
**A.** The IC50 was > 100 µM.

**Q.** What about the CC50 [5] of the same compound?
**A.** The CC50 was 7.58 µM.

**Q.** And the IC50 (Enterovirus A71)?
**A.** The IC50 was > 100 µM.

**Q.** What about the CC50 [6] of the same compound?
**A.** The CC50 was > 100 µM.

**Q.** And the IC50 (Human rhinovirus sp. [7])?
**A.** The IC50 was > 33300 nM.

**Q.** What about the CC50 [8] of the same compound?
**A.** Its CC50 is 9.88 µM.

**Q.** And the IC50 (Human rhinovirus sp. [9])?
**A.** Its IC50 is > 410 nM.

**Q.** And the MIC (Escherichia coli [10])?
**A.** The MIC was 440 µM (≈ 308 µg/mL).

**Q.** What about the MBC (Escherichia coli [11]) of the same compound?
**A.** Its MBC is 440 µM (≈ 308 µg/mL).

**Q.** And the MIC (Pseudomonas aeruginosa [12])?
**A.** The MIC was 1780 µM (≈ 1250 µg/mL).

**Q.** And the MBC (Pseudomonas aeruginosa [13])?
**A.** The MBC was 1780 µM (≈ 1250 µg/mL).

**Q.** What about the MIC (Staphylococcus aureus [14]) of the same compound?
**A.** The MIC was 440 µM (≈ 308 µg/mL).

**Q.** And the MBC (Staphylococcus aureus [15])?
**A.** Its MBC is 440 µM (≈ 308 µg/mL).

**Q.** What about the MIC (Enterococcus faecalis [16]) of the same compound?
**A.** The MIC was 60 µM (≈ 42.1 µg/mL).

**Q.** What about the MBC (Enterococcus faecalis [17]) of the same compound?
**A.** Its MBC is 60 µM (≈ 42.1 µg/mL).

**Q.** And the Ratio (Escherichia coli [18])?
**A.** Its Ratio is 1.

**Q.** What about the Ratio (Pseudomonas aeruginosa [19]) of the same compound?
**A.** Its Ratio is 4.05.

**Q.** What about the Ratio (Staphylococcus aureus [20]) of the same compound?
**A.** The Ratio was 1.

**Q.** What about the Ratio (Enterococcus faecalis [21]) of the same compound?
**A.** The Ratio was 1.

**Q.** Which IC50 (SARS-CoV-2) does the source give for Fc1ccc2nc(C(F)(F)F)cc(OCc3cn(-c4ccccc4Cl)nn3)c2c1 here?
**A.** Its IC50 is 60 µM.

**Q.** Which IC50 (Human rhinovirus sp. [7]) does the source give for Cc1cc(CCCOc2c(C)cc(-c3noc(C(F)(F)F)n3)cc2C)on1 [PLECONARIL] here?
**A.** Its IC50 is 200 nM.

**Q.** What about the CC50 [8] of the same compound?
**A.** Its CC50 is > 100 µM.

**Q.** And the selectivity ratio [22]?
**A.** Its selectivity ratio is > 500.

**Q.** And the IC50 (Human rhinovirus sp. [9])?
**A.** Its IC50 is 440 nM.

**Q.** What about the selectivity ratio [23] of the same compound?
**A.** Its selectivity ratio is > 227.

**Q.** Which MIC (Staphylococcus aureus [24]) does the source give for COC(=O)C(NC(=O)c1ccccc1)n1cc(Cn2c(=O)cc(C(=O)N[C@H](C)C(=O)OC)c3ccccc32)nn1 (stereo partly drawn) here?
**A.** Its MIC is 39 µg/mL (≈ 71.4 µM).

**Q.** What about the MIC (Pseudomonas aeruginosa [25]) of the same compound?
**A.** Its MIC is 78 µg/mL (≈ 143 µM).
